Measurements published in patent US9023789B2, “Amylin analogs and pharmaceutical compositions thereof” (Novo Nordisk A/S, priority 2012, dated 2015).
≈ marks a conversion by molar mass, not a printed value. Where two headings read alike, the source gives them in different places. Numbered stars: 1 amine (or outer) side, 2 acyl side, 3 side chain; on linkers, the order of the positions; unused ones are H or OH. Bridge positions count the residues as written; N and C are the ends. Side chains are listed from the residue outwards. Peptide text beside a SMILES is read from it. * marks the point of attachment. C20 diacid = O=C(O)CCCCCCCCCCCCCCCCCCC(=O)*; γGlu = O=C(O)[C@H](CCC(=O)[*:2])N[*:1]; AEEA = NCCOCCOCC(=O)O

Experiments:
[1] = biological target: T1, rat amylin receptor (rat calcitonin receptor + rat RAMP 3) (Rattus norvegicus, UniProt P32214+Q9JJ73); assay: ASSAY (VI) binding to the rat amylin receptor; conditions: for IC50: binding to rat amylin receptor, read-out: rAmylin-R bind IC50
T1 construct: expressed in transfected cells; host or cells: BHK tk'ts 13 (transient, FuGENE 6), membranes
T1 sequence (P32214 25-479 isoform P32214-2 limits assumed): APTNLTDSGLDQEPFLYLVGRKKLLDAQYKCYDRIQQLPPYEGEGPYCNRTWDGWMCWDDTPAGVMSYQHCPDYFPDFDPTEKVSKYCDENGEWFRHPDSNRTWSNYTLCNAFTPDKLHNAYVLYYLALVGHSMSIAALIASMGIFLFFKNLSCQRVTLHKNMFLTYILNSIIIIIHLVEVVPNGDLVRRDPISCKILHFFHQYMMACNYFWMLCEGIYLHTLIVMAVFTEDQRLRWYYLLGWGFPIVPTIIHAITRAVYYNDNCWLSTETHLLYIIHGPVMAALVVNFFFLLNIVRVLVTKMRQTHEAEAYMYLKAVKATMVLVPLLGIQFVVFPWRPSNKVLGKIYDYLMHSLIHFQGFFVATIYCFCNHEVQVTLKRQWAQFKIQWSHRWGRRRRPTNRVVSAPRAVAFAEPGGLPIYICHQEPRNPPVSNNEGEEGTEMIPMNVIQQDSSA
T1 sequence (Q9JJ73 23-147 partner): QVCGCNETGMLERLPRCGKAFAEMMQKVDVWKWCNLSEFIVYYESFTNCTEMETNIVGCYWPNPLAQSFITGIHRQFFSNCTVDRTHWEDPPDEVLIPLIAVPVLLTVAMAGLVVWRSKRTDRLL
Procedure, shortened: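 This assay measured binding to the rat amylin receptor. BHK tk′ts 13 cells were transiently transfected with the rat calcitonin receptor using FuGENE® 6 (Roche), following the manufacturer's recommendations. About 48 hours after transfection, the cells were harvested and membranes were prepared from them for the binding determination.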

[2] = system: Sprague Dawley (SD) rats; assay: ASSAY (I) efficacy testing on appetite (food intake) using an ad libitum fed rat model; assay type: in vivo; conditions: rat, 30 nmol/kg
Procedure, shortened: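 Ad libitum fed SD rats (200–250 g) were housed singly on a reversed light/dark cycle and given one 0.01–3 mg/kg dose ip, po or sc just before lights-off, with 5–8 per dose group plus vehicle controls. Food intake was recorded hourly for 7 h, then at 24 h and sometimes 48 h; Grubbs outliers were excluded.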

[3] = ASSAY (IV) determination of solubility; assay type: physicochemical
Procedure, shortened: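 Polypeptide stock in water ([…]) was mixed 1:1 with 100 mM buffers: glycylglycine at pH 3.0, 4.0, 5.0 and bistrispropane at pH 6.0, 6.5, 7.0, 7.5, 8.0. After 18 hours at room temperature, samples were centrifuged and polypeptide concentration measured by UPLC.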

[4] = biological target: T2, rat calcitonin receptor (Rattus norvegicus, UniProt P32214); assay: ASSAY (VIII) binding to the rat calcitonin receptor; conditions: Table 7, read-out: rCTR bind IC50
T2 construct: expressed in transfected cells; host or cells: BHK tk'ts 13 (transient, FuGENE 6), membranes
T2 sequence (P32214 25-479 isoform P32214-2 limits assumed): T1 sequence (P32214 25-479 isoform P32214-2 limits assumed)
Procedure, shortened: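 Transfect BHK tk′ts 13 cells transiently with rat calcitonin receptor, culture in DMEM containing 10% FBS, collect cells about 48 hours later, then prepare membranes.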

[5] = biological target: T3, human amylin receptor (membranes from Amylin 3(a)/CRE-luc cells) (Homo sapiens, UniProt O60896+P30988); assay: ASSAY (V) binding to the human amylin receptor (SPA, 125I-rat amylin); conditions: for IC50: Table 4, read-out: hAmylin-R bind IC50;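 as to all read-outs here: competition binding of cell membranes (35 ng/µL) mixed with SPA beads in 384-well plates at 40 µL total volume, read by scintillation counting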
T3 construct: expressed in transfected cells
T3 sequence (P30988 25-474): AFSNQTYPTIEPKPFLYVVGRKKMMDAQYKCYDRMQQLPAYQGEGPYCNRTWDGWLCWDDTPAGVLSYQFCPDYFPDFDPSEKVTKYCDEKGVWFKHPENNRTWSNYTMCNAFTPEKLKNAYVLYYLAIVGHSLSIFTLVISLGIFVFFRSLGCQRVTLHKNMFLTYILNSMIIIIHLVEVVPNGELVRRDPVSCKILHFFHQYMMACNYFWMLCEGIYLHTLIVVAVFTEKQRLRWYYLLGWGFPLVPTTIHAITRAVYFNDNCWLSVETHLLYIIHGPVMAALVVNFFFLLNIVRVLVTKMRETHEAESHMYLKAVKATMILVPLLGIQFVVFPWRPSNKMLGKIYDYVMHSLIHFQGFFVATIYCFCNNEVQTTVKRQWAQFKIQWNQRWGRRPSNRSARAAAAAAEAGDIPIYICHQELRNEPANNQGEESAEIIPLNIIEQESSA
T3 sequence (O60896 24-148 partner): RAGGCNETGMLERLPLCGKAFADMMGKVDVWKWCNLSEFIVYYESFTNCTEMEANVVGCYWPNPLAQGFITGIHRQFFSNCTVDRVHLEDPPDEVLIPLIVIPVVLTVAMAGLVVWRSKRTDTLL

[6] = Table 7, rat binding selectivity, rCTR IC50 / rAmylin-R IC50
[7] = Table 7a (preferred compounds), rat binding selectivity, rCTR IC50 / rAmylin-R IC50
[8] = ratio of rCTR bind IC50 to rAmylin-R bind IC50
[9] = bistrispropane buffer, pH 6.5, read-out: Solubility pH 6.5 Concentration
[10] = bistrispropane buffer, pH 7.5, read-out: Solubility pH 7.5 Concentration
[11] = bistrispropane buffer, pH 6.0, read-out: Solubility pH 6.0 Concentration
[12] = bistrispropane buffer, pH 7.0, read-out: Solubility pH 7.0 Concentration
[13] = bistrispropane buffer, pH 8.0, read-out: Solubility pH 8.0 Concentration
[14] = glycylglycine buffer, pH 3.0, read-out: Solubility pH 3.0 Concentration
[15] = glycylglycine buffer, pH 4.0, read-out: Solubility pH 4.0 Concentration
[16] = glycylglycine buffer, pH 5.0, read-out: Solubility pH 5.0 Concentration
[17] = Table 5, selectivity, hCTR bind IC50 / hAmylin-R bind IC50
[18] = Table 5a, selectivity, hCTR bind IC50 / hAmylin-R bind IC50
[19] = Table 5b, selectivity, hCTR bind IC50 / hAmylin-R bind IC50
[20] = Table 5c, selectivity, hCTR bind IC50 / hAmylin-R bind IC50
[21] = Table 7, human binding selectivity, included for comparison
[22] = Table 7a (preferred compounds), human binding selectivity, included for comparison
[23] = ratio of human calcitonin receptor binding IC50 to human amylin receptor binding IC50

| SMILES | IC50 ([1]; Table 7) [nM] | Ratio rCT/rAmylin binding [1, 6] | Ratio rCT/rAmylin binding [1, 7] | Ratio rCT/rAmylin binding [1, 8] | Food intake reduction 0-24 h 30 nmol/kg (%) [2] [%] | Food intake reduction 24-48 h 30 nmol/kg (%) [2] [%] | solubility at 18 h [3, 9] [µM] | solubility at 18 h [3, 10] [µM] | solubility at 18 h [3, 11] [µM] | solubility at 18 h [3, 12] [µM] | solubility at 18 h [3, 13] [µM] | solubility at 18 h [3, 14] [µM] | solubility at 18 h [3, 15] [µM] | solubility at 18 h [3, 16] [µM] | IC50 [4] [nM] | IC50 [5] [nM] | Ratio hCT/hAmylin binding [5, 17] | Ratio hCT/hAmylin binding [5, 18] | Ratio hCT/hAmylin binding [5, 19] | Ratio hCT/hAmylin binding [5, 20] | other results |
| --- | --- | --- | --- | --- | --- | --- | --- | --- | --- | --- | --- | --- | --- | --- | --- | --- | --- | --- | --- | --- | --- |
| CC[C@H](C)[C@H](NC(=O)[C@H](C)NC(=O)CNC(=O)[C@H](Cc1ccccc1)NC(=O)[C@H](CC(N)=O)NC(=O)[C@@H]1CCCN1C(=O)[C@H](CO)NC(=O)[C@H](CO)NC(=O)[C@H](Cc1c[nH]cn1)NC(=O)[C@H](CCCNC(=N)N)NC(=O)[C@H](CC(C)C)NC(=O)[C@H](Cc1ccccc1)NC(=O)[C@H](CC(N)=O)NC(=O)[C@H](C)NC(=O)[C@H](CC(C)C)NC(=O)[C@H](CCCNC(=N)N)NC(=O)[C@H](CCC(N)=O)NC(=O)[C@@H](NC(=O)[C@H](C)NC(=O)[C@@H]1CSSC[C@H](NC(=O)[C@@H](N)CCCCNC(=O)COCCOCCNC(=O)COCCOCCNC(=O)CC[C@H](NC(=O)CCCCCCCCCCCCCCCCCCC(=O)O)C(=O)O)C(=O)N[C@@H](CC(N)=O)C(=O)N[C@@H]([C@@H](C)O)C(=O)N[C@@H](C)C(=O)N[C@@H]([C@@H](C)O)C(=O)N1)[C@@H](C)O)C(=O)N1CCC[C@H]1C(=O)N[C@@H](CO)C(=O)N[C@@H](CO)C(=O)N[C@H](C(=O)N[C@@H](CC(N)=O)C(=O)N[C@H](C(=O)NCC(=O)N[C@@H](CCCNC(=N)N)C(=O)N[C@@H](CC(N)=O)C(=O)N[C@H](C(=O)N[C@@H](Cc1ccc(O)cc1)C(N)=O)[C@@H](C)O)C(C)C)[C@@H](C)O [Example 95] (H-K([AEEA-AEEA-γGlu-C20 diacid])CNTATCATQRLANFLRHSSPNFGAIPSSTNVGRNTY-NH2; disulfide 2-7 (inferred); N-terminus assumed) | 5.45 | 71.3 | 71.3 | 71.3 | 22 | 0 | ≥ 200 | ≥ 200 | ≥ 200 | ≥ 200 | ≥ 200 | ≥ 200 | ≥ 200 | ≥ 200 | 389 | 0.967 | 63.4 | 63.4 | 63.4 | 63.4 | Ratio hCT/hAmylin binding [5, 21]: 63.4; Ratio hCT/hAmylin binding [5, 22]: 63.4; Ratio hCT/hAmylin binding [5, 23]: 63.4 |
| CC[C@H](C)[C@H](NC(=O)[C@H](C)NC(=O)CNC(=O)[C@H](Cc1ccccc1)NC(=O)[C@H](CC(N)=O)NC(=O)[C@@H]1CCCN1C(=O)[C@H](CO)NC(=O)[C@H](CO)NC(=O)[C@H](Cc1c[nH]cn1)NC(=O)[C@H](CCCNC(=N)N)NC(=O)[C@H](CC(C)C)NC(=O)[C@H](Cc1ccccc1)NC(=O)[C@H](CCC(=O)O)NC(=O)[C@H](C)NC(=O)[C@H](CC(C)C)NC(=O)[C@H](CCCNC(=N)N)NC(=O)[C@H](CCC(N)=O)NC(=O)[C@@H](NC(=O)[C@H](C)NC(=O)[C@@H]1CSSC[C@H](NC(=O)[C@@H](N)CCCCNC(=O)CC[C@H](NC(=O)CC[C@H](NC(=O)CCCCCCCCCCCCCCCCCCC(=O)O)C(=O)O)C(=O)O)C(=O)N[C@@H](CC(N)=O)C(=O)N[C@@H]([C@@H](C)O)C(=O)N[C@@H](C)C(=O)N[C@@H]([C@@H](C)O)C(=O)N1)[C@@H](C)O)C(=O)N1CCC[C@H]1C(=O)N[C@@H](CO)C(=O)N[C@@H](CO)C(=O)N[C@H](C(=O)N[C@@H](CC(N)=O)C(=O)N[C@H](C(=O)NCC(=O)N[C@@H](CO)C(=O)N[C@@H](CCCNC(=N)N)C(=O)N[C@H](C(=O)N[C@@H](Cc1ccc(O)cc1)C(N)=O)[C@@H](C)O)C(C)C)[C@@H](C)O [Example 89] (H-K([γGlu-γGlu-C20 diacid])CNTATCATQRLAEFLRHSSPNFGAIPSSTNVGSRTY-NH2; disulfide 2-7 (inferred); N-terminus assumed) | 2.37 | 48.8 | 48.8 | 48.8 | 46 | 37 | ≥ 200 | 162 (≈ 738 µg/mL) | ≥ 200 | 172 (≈ 786 µg/mL) | 149 (≈ 681 µg/mL) | ≥ 200 | ≥ 200 | ≥ 200 | 115 | 1.16 | 28.0 | 28.0 | 28.0 | 28.0 | Ratio hCT/hAmylin binding [5, 21]: 28.0; Ratio hCT/hAmylin binding [5, 22]: 28.0; Ratio hCT/hAmylin binding [5, 23]: 28.0 |
